Measured values as given in the supplement of paper PMC9780213.

Tests used:
Details in all cases: treatment time: 24 h
U2OS-LMNB1-TUBA1B-ACTB = test: cell count relative to DMSO control (panel C1, DRAQ5/ER stain) (fraction of control); higher = more cells (less toxicity)
Method: (§1)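 U2OS-derived cells in 384-well plates were treated for 24 h with a 7-point 2-fold dilution series (top dose 20 µM for most compounds; final max DMSO 1%), then fixed, stained in four marker panels and imaged on a Cellomics ArrayScan. Cell count per treatment (three replicate plates merged) is given as a fraction of DMSO control. Panel A used parental U2OS, panel B U2OS-mOrange2-Peroxisome, panel C1 U2OS-LMNB1-TUBA1B-ACTB (DRAQ5 nuclei).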

U2OS-mOrange2-Peroxisome = test: cell count relative to DMSO control (panel B, lysosome/peroxisome/lipid stain) (fraction of control); higher = more cells (less toxicity)
Method: as §1

U2OS = test: cell count relative to DMSO control (panel A, nuclei/RNA/PMG/mitochondria stain) (fraction of control); higher = more cells (less toxicity)
Method: as §1

O=C(/C=C/c1cccc(S(=O)(=O)Nc2ccccc2)c1)NO [belinostat]
cell count
Details	0.3125 µM	0.625 µM	1.25 µM	2.5 µM	5 µM	10 µM	20 µM
U2OS	1.07	1.03	1.1	1.07	1.04	0.557	0.351
U2OS-LMNB1-TUBA1B-ACTB	1.04	1.04	1.02	0.99	1.09	0.701	0.397
U2OS-mOrange2-Peroxisome	0.814	0.805	1.05	1.14	1.19	1.18	0.581

Cn1c(CCCC(=O)O)nc2cc(N(CCCl)CCCl)ccc21 [bendamustine]
cell count
Details	0.3125 µM	0.625 µM	1.25 µM	2.5 µM	5 µM	10 µM	20 µM
U2OS	0.945	0.814	0.265	0.1	0.145	0.133	0.162
U2OS-LMNB1-TUBA1B-ACTB	1.02	1.03	0.607	0.26	0.277	0.264	0.284
U2OS-mOrange2-Peroxisome	0.462	0.439	0.374	0.371	0.366	0.422	0.454

Cc1c(N)nc([C@H](CC(N)=O)NC[C@H](N)C(N)=O)nc1C(=O)N[C@H](C(=O)N[C@H](C)[C@@H](O)[C@H](C)C(=O)N[C@H](C(=O)NCCc1nc(-c2nc(C(=O)NCCC[S+](C)C)cs2)cs1)[C@@H](C)O)[C@@H](O[C@@H]1O[C@@H](CO)[C@@H](O)[C@H](O)[C@@H]1O[C@H]1O[C@H](CO)[C@@H](O)[C@H](OC(N)=O)[C@@H]1O)c1c[nH]cn1 [bleomycin]
cell count
Details	0.3125 µM	0.625 µM	1.25 µM	2.5 µM	5 µM	10 µM	20 µM
U2OS	0.746	0.849	0.8	0.933	0.701	0.817	0.794
U2OS-LMNB1-TUBA1B-ACTB	0.845	0.893	0.934	1.02	0.88	0.909	0.887
U2OS-mOrange2-Peroxisome	1.36	1.16	1.31	1.26	1.32	1.25	1.34

C[C@H]1CCC/C=C/[C@@H]2C[C@H](O)C[C@H]2[C@H](O)/C=C/C(=O)O1 [brefeldin-a]
cell count
Details	0.3125 µM	0.625 µM	1.25 µM	2.5 µM	5 µM	10 µM	20 µM
U2OS	0.543	0.545	0.527	0.584	0.586	0.644	0.577
U2OS-LMNB1-TUBA1B-ACTB	0.698	0.697	0.661	0.616	0.632	0.584	0.529
U2OS-mOrange2-Peroxisome	0.53	0.567	0.55	0.574	0.515	0.544	0.557

CN(C)[C@@H]1C(O)=C(C(N)=O)C(=O)[C@@]2(O)C(O)=C3C(=O)c4c(O)ccc(Cl)c4[C@@](C)(O)[C@H]3C[C@@H]12 [chlortetracycline]
cell count
Details	0.3125 µM	0.625 µM	1.25 µM	2.5 µM	5 µM	10 µM	20 µM
U2OS	1.12	1.07	1.08	1.06	1.02	0.933	0.783
U2OS-LMNB1-TUBA1B-ACTB	1.15	1.12	1.1	0.983	0.989	1.07	0.897
U2OS-mOrange2-Peroxisome	0.886	0.771	0.779	0.944	1.01	0.62	0.486

N.N.[Cl][Pt][Cl] [cisplatin]
cell count
Details	0.15625 µM	0.3125 µM	0.625 µM	1.25 µM	2.5 µM	5 µM	10 µM
U2OS	1.07	1.04	1.12	1.03	1.02	1.02	0.948
U2OS-LMNB1-TUBA1B-ACTB	1.01	1.06	1.12	1.03	0.956	0.991	1.01
U2OS-mOrange2-Peroxisome	1.19	0.977	0.858	0.908	0.967	1.05	0.956

C=C1[C@@H](C)[C@H]2[C@H](Cc3ccccc3)NC(=O)[C@]23[C@H](OC(C)=O)/C=C/[C@@](C)(O)C(=O)[C@@H](C)C/C=C/[C@H]3[C@@H]1O [cytochalasin-d]
cell count
Details	0.000781 µM	0.0015625 µM	0.003125 µM	0.00625 µM	0.0125 µM	0.025 µM	0.05 µM
U2OS	0.938	0.944	0.899	1	0.643	0.463	0.403
U2OS-LMNB1-TUBA1B-ACTB	1.08	1.04	1.04	0.821	0.499	0.374	0.356
U2OS-mOrange2-Peroxisome	0.993	1.12	1.29	1.24	0.826	0.656	0.602

Cc1c2oc3c(C)ccc(C(=O)N[C@@H]4C(=O)N[C@H](C(C)C)C(=O)N5CCC[C@H]5C(=O)N(C)CC(=O)N(C)[C@@H](C(C)C)C(=O)O[C@@H]4C)c3nc-2c(C(=O)N[C@@H]2C(=O)N[C@H](C(C)C)C(=O)N3CCC[C@H]3C(=O)N(C)CC(=O)N(C)[C@@H](C(C)C)C(=O)O[C@@H]2C)c(N)c1=O [dactinomycin]
cell count
Details	0.3125 µM	0.625 µM	1.25 µM	2.5 µM	5 µM	10 µM	20 µM
U2OS	0.928	0.89	0.807	0.741	0.73	0.381	0.229
U2OS-LMNB1-TUBA1B-ACTB	1.05	1.09	1	0.993	0.824	0.661	0.418
U2OS-mOrange2-Peroxisome	1.08	1.07	1.01	0.743	0.663	0.243	0.139
